Measurements taken from publication PMC6825211 (Nature Communications, 2019).
“And” between values parts separate entries of the source, which are not always exact repeats. Equal values may be shown once.

Columns and labels:
[1] = system: obese diabetic Lepr db/db mice; test: db/db model: random fed blood glucose; type: in vivo, mouse; conditions: for glycemia: dbdb mice
Description: (§1) Data are representative of six mice per group (n = 6 for (a–f)). g–j Mice were killed at day 31. g β-cell mass (given as percentage of the whole pancreatic section from ten sections spanning the width of the pancreas; n = 5 mice/group) and quantitative analyses from triple stainings for (h) TUNEL, (i) Ki67, (j) pHH3, and (k) nuclear PDX1 expression, insulin, and DAPI expressed as percentage of TUNEL-, Ki67-, pHH3-, or nuclear PDX1-positive β-cells ± SEM. An average number of 13667 (h), 5937 (i), 7108 (j), or 4330 (k) β-cells were counted from n = 3–5 (h, i, k) or n = 5–6 (j) mice/group.

[2] = system: obese diabetic Lepr db/db mice; test: db/db model: β-cell mass; type: in vivo, mouse; conditions: for BCM: dbdb mice
Description: as §1
For morphometric data, ten sections (spanning the width of the pancreas) per mouse were analyzed. Pancreatic tissue area and insulin-positive area were determined by computer-assisted measurements by using a Nikon MEA53200 (Nikon GmbH, Dusseldorf, Germany) microscope, and images were acquired by using NIS-Elements software (Nikon). β-cell mass was obtained by multiplying the β-cell fraction by the weight of the pancreas.

[3] = system: isolated islets from WT C57Bl/6 mice; test: β-cell apoptosis (TUNEL), WT islets, IL-1β/IFNγ 72 h, neratinib added for last 24 h; type: cell-based, mouse; conditions: for TUNEL%: Cytokines+Nera
LCK = LCK (Homo sapiens, UniProt P06239); test: biochemical; conditions: read-out: % inhibition by neratinib
INS-1E cells = test: Cytotoxicity CellTiter-Glo assay; conditions: all tested concentrations, 24 h
Description: Assay plates were shaken vigorously for 1 min at RT to achieve completed cell lysis. Luminescence intensity was detected on Envision plate reader (Perkin Elmer, MA).

[4] = Pharmacokinetic study, single i.p. dose; conditions: for AUC(0-inf): AUCINF
AURORA-A = AURORA-A (Homo sapiens, UniProt O14965); test: Nanosyn kinase profiling, mobility shift assay; conditions: read-out: % inhibition by neratinib
CHEK1 = CHEK1 (Homo sapiens, UniProt O14757); test: Nanosyn kinase profiling, mobility shift assay; conditions: read-out: % inhibition by neratinib
FGFR1 = FGFR1 (Homo sapiens, UniProt P11362); test: Nanosyn kinase profiling, mobility shift assay; conditions: read-out: % inhibition by neratinib
GSK-3-BETA = GSK-3-BETA (Homo sapiens, UniProt P49841); test: Nanosyn kinase profiling, mobility shift assay; conditions: read-out: % inhibition by neratinib
PI3-KINASE-ALPHA = PI3-KINASE-ALPHA (Homo sapiens, UniProt P42336); test: Nanosyn kinase profiling, mobility shift assay; conditions: read-out: % inhibition by neratinib
PKC-ALPHA = PKC-ALPHA (Homo sapiens, UniProt P17252); test: Nanosyn kinase profiling, mobility shift assay; conditions: read-out: % inhibition by neratinib
MST1–LATS2 signaling = test: Western blot of YAP-S127 phosphorylation (MST1/LATS2 overexpression); conditions: 10 μM, last 24 h
human islets = test: Western blot of pMST1 and caspase-3 cleavage under diabetogenic conditions; conditions: 72 h, six donors
[5] = system: isolated islets from MST1-KO mice; test: β-cell apoptosis (TUNEL/insulin) under diabetogenic conditions, MST1-KO islets
[6] = 5 mg/kg IP, individual animals 1-3

Chain of AURORA-A (O14965 whole entry): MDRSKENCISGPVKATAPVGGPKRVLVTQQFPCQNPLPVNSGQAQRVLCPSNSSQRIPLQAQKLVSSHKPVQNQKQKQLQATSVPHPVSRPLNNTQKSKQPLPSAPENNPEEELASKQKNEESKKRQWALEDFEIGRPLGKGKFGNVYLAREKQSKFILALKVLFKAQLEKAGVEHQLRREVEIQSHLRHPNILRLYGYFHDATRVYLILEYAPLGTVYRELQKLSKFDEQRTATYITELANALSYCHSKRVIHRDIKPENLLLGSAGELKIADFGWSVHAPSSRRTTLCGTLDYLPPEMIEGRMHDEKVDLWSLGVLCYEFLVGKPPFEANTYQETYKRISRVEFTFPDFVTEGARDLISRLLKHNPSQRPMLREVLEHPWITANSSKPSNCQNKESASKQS
Chain of GSK-3-BETA (P49841 whole entry): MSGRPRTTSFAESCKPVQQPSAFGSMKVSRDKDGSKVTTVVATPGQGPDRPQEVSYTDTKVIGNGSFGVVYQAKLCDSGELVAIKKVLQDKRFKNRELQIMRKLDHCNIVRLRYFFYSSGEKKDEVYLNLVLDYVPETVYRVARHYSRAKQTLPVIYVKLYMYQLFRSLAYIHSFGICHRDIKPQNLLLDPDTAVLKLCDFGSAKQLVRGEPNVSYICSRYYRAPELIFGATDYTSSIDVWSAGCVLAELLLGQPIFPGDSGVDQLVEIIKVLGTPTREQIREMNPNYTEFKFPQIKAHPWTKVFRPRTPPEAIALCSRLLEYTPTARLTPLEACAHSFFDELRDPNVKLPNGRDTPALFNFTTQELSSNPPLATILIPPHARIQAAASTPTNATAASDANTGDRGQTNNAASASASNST
Chain of LCK (P06239 whole entry, species assumed): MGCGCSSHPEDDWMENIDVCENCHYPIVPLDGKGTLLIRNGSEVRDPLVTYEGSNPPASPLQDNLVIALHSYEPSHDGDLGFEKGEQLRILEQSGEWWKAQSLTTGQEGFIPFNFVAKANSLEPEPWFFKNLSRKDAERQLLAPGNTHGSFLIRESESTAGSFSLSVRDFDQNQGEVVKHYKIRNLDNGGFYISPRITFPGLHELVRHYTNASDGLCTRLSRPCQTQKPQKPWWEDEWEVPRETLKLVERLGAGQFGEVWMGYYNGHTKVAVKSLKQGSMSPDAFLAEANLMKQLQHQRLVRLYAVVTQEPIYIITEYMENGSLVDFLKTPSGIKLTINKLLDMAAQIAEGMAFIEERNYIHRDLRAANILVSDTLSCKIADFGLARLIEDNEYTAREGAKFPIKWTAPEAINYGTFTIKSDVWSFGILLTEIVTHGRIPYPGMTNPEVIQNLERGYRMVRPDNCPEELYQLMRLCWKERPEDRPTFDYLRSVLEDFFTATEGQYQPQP
Chain of CHEK1 (O14757 whole entry): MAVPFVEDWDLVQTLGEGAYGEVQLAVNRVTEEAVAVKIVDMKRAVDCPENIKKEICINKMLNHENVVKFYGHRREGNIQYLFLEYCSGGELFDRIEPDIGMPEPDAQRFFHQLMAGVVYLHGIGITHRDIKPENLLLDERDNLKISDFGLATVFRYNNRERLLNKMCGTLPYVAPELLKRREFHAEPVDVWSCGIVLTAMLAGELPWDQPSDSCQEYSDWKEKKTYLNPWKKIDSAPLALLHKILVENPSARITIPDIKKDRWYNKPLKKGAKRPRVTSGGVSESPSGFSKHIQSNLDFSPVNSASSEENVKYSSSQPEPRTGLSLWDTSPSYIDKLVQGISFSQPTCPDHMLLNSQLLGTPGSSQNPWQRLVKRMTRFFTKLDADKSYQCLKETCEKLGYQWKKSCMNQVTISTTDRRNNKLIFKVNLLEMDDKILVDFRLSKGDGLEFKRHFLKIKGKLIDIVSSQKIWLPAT
Chain of FGFR1 (P11362 22-822): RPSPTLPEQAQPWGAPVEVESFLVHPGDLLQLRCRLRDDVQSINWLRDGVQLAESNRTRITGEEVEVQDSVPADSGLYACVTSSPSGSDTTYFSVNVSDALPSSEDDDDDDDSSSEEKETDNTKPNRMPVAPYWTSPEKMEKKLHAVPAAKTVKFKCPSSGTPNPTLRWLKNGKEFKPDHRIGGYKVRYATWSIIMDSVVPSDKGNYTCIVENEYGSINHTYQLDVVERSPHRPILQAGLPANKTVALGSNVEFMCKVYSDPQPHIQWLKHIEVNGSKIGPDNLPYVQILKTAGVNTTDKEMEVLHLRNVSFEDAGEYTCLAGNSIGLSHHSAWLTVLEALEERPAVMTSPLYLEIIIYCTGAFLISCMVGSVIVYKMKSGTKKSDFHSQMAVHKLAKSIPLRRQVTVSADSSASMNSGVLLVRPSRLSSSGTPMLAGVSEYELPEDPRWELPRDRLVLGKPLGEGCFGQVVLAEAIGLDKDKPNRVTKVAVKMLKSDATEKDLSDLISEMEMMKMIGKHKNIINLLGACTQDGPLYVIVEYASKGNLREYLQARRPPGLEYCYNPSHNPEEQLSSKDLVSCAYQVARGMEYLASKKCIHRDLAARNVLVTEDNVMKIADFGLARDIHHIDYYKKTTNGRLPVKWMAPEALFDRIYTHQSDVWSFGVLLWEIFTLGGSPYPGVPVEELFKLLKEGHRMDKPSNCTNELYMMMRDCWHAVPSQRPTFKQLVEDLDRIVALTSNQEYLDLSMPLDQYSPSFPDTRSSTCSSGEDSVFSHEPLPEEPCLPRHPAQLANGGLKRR
Chain of PI3-KINASE-ALPHA (P42336 whole entry): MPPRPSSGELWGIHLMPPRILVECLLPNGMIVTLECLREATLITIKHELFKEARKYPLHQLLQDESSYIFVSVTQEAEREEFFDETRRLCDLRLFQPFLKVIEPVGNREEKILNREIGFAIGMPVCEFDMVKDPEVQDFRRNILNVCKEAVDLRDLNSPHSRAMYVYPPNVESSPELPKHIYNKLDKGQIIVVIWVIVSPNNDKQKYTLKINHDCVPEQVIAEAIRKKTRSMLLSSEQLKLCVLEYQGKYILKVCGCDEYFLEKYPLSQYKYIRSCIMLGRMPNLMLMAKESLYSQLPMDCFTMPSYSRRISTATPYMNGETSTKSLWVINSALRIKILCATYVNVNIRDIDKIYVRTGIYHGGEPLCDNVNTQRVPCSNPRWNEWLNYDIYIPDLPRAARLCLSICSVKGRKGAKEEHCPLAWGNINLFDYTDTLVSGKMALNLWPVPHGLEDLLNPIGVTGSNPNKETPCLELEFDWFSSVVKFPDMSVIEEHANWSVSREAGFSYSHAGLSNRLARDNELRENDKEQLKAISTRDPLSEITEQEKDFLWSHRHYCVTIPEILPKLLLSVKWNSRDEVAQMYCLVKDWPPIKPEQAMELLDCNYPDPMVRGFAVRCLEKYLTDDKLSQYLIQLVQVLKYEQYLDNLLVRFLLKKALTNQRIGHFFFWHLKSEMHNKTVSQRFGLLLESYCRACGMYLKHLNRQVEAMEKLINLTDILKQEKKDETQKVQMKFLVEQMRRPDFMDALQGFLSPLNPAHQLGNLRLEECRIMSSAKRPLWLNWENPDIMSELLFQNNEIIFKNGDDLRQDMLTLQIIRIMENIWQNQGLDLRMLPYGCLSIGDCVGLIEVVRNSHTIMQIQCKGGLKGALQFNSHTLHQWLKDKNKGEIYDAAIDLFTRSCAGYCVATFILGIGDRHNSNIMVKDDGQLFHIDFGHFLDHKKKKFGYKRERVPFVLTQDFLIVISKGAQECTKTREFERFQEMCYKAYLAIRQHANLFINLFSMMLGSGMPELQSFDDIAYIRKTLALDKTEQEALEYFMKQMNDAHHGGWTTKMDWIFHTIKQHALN
Chain of PI3-KINASE-ALPHA (P27986 whole entry partner): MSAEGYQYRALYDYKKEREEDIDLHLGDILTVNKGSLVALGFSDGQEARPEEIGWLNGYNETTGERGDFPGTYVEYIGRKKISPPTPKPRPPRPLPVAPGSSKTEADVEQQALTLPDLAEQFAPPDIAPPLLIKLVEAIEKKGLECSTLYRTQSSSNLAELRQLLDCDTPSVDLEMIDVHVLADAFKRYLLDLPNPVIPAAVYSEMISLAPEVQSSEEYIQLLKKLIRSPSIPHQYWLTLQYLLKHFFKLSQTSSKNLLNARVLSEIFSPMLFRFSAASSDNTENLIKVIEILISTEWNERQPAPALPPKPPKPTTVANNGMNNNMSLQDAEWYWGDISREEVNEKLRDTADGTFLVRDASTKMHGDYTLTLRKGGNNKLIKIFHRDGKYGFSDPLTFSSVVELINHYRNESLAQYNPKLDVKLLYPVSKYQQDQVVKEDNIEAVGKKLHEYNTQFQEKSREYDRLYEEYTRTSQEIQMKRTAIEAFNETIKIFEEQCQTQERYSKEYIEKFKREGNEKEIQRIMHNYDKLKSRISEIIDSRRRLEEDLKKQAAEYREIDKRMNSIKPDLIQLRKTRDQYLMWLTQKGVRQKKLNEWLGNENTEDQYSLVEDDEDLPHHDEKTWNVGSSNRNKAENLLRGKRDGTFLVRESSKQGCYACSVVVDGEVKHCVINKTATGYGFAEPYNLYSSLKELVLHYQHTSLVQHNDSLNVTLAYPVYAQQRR

Structure (SMILES): CCOc1cc2ncc(C#N)c(Nc3ccc(OCc4ccccn4)c(Cl)c3)c2cc1NC(=O)/C=C/CN(C)C [neratinib]
- blood glucose, start to after 30 days of therapy ([1]; db/db neratinib group, no significant increase): 312 to 384 mg/dL
- blood glucose levels after 4 weeks ([1]; db/db, 5 mg/kg i.p. daily): did not significantly increase
- glycemia ([1]; 0 days after NERA injection, MEAN): 311.667 mg/dL
- glycemia ([1]; 0 days after NERA injection, individual mice): 219 mg/dL and 243 mg/dL and 260 mg/dL and 443 mg/dL and 266 mg/dL and 439 mg/dL
- glycemia ([1]; 31 days after NERA injection, individual mice): 405 mg/dL and 313 mg/dL and 425 mg/dL and 317 mg/dL and 380 mg/dL and 462 mg/dL
- β-cell mass ([2]; db/db, day 31): increased β-cell mass
- BCM ([2]; Mean): 4.571
- BCM ([2]; individual mice): 1.526 and 8.3226 and 3.26 and 4.639 and 5.1069
- TUNEL% ([3]; MEAN): 0.4111%
- TUNEL% ([3]; individual replicates): 0.4072% and 0.3399% and 0.4861%
- β-cell survival after cytokine-induced apoptosis ([3]; IL-1β/IFNγ 48 h, then 10 μM neratinib another 24 h): fully restored β-cell survival
- inhibition at 10 µM (LCK): 96%
- basal cell viability (steady-state ATP) (INS-1E cells): no evidence of interference on basal cell viability
- Cl ([4]; 5 mg/kg IP, AVERAGE n=3): 263.8 mL/min/kg
- VD ([4]; 5 mg/kg IP, AVERAGE n=3): 58.9 L/kg
- AUC0-24 [4, 6]: 1.9671 µM·h and 2.1252 µM·h
- AUCINF [4, 6]: 2.1537 µM·h and 2.2985 µM·h
- AUCLAST [4, 6]: 1.9671 µM·h and 2.1252 µM·h
- Cl [4, 6]: 253.1 mL/min/kg and 277.9 mL/min/kg and 260.4 mL/min/kg
- Cmax [4, 6]: 557 nM and 623 nM
- MRT [4, 6]: 2.3 h
- Tmax [4, 6]: 1.0 h
- VD [4, 6]: 86.9 L/kg and 46.7 L/kg and 43.1 L/kg
- t1/2 [4, 6]: 4.0 hr and 1.9 hr (2×)
- maximum concentration ([4]; 5 mg/kg single i.p. dose, plasma, fasted mice): 306 ng/mL
- AUC(0-t) ([4]; mouse, plasma, ip, 5 mg/kg, AUC0-24, 5 mg/kg IP, AVERAGE n=3): 1.9 µM·h
- AUC(0-t) ([4]; mouse, plasma, ip, 5 mg/kg, AUC0-24, 5 mg/kg IP, individual animals 1-3): 1.62 µM·h
- AUC(0-inf) ([4]; mouse, plasma, ip, 5 mg/kg, 5 mg/kg IP, AVERAGE n=3): 2.27 µM·h
- AUC(0-inf) ([4]; mouse, plasma, ip, 5 mg/kg, 5 mg/kg IP, individual animals 1-3): 2.36 µM·h
- AUC(0-t) ([4]; mouse, plasma, ip, 5 mg/kg, AUCLAST, 5 mg/kg IP, AVERAGE n=3): 1.9 µM·h
- AUC(0-t) ([4]; mouse, plasma, ip, 5 mg/kg, AUCLAST, 5 mg/kg IP, individual animals 1-3): 1.62 µM·h
- Cmax ([4]; mouse, plasma, ip, 5 mg/kg, Cmax, 5 mg/kg IP, AVERAGE n=3): 549 nM
- Cmax ([4]; mouse, plasma, ip, 5 mg/kg, Cmax, 5 mg/kg IP, individual animals 1-3): 469 nM
- MRT ([4]; mouse, plasma, ip, 5 mg/kg, MRT, 5 mg/kg IP, AVERAGE n=3): 2.4 h
- MRT ([4]; mouse, plasma, ip, 5 mg/kg, MRT, 5 mg/kg IP, individual animals 1-3): 2.7 h
- Tmax ([4]; mouse, plasma, ip, 5 mg/kg, Tmax, 5 mg/kg IP, AVERAGE n=3): 0.7 h
- Tmax ([4]; mouse, plasma, ip, 5 mg/kg, Tmax, 5 mg/kg IP, individual animals 1-3): 0.5 h
- half-life ([4]; mouse, plasma, ip, 5 mg/kg, t1/2, 5 mg/kg IP, AVERAGE n=3): 2.6 h
- Tmax ([4]; mouse, plasma, ip, 5 mg/kg, time of maximum concentration post dosing, 5 mg/kg single i.p. dose, average): 0.67 h
- inhibition at 10 µM (AURORA-A): 28%
- inhibition at 10 µM (CHEK1): 27%
- inhibition at 10 µM (FGFR1): 26%
- inhibition at 10 µM (GSK-3-BETA): 23%
- inhibition at 10 µM (PI3-KINASE-ALPHA): 18%
- inhibition at 10 µM (PKC-ALPHA): 7%
- MST1/LATS2-induced YAP-S127 phosphorylation (MST1–LATS2 signaling): strongly inhibited
- cytokine- and high glucose/palmitate-induced MST1 activation and caspase-3 activation (human islets): potently and significantly inhibited
- cytokine- and glucolipotoxicity-induced apoptosis in MST1-KO islets ([5]; 10 μM, 72 h): no significant effect
- mean TUNEL/isolation/% ([5]; MST1-KO HG/Pal Nera 10 μM 72 h): 407.974%
- mean TUNEL/isolation/% ([5]; MST1-KO ILIF Nera 10 μM 72 h): 384.79%
